Target: T1, Recombinant human GSS (Homo sapiens, UniProt P48637)
T1 sequence (P48637 2-474): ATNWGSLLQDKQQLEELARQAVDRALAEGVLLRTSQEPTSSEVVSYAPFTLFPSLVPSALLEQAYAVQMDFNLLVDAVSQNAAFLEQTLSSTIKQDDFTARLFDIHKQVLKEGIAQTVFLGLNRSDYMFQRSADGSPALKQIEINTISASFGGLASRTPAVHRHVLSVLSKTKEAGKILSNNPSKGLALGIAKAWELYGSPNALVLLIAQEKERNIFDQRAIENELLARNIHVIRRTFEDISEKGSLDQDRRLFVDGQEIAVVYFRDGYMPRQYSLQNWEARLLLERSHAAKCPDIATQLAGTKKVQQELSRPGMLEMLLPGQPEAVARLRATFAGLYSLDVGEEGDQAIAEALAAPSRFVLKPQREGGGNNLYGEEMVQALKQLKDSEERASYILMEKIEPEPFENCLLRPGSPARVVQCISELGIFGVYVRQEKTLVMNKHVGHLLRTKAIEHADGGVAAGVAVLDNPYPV
Experiment: isothermal titration calorimetry
Format: binding

A Kd of 1.09 µM was found for `N[C@@H](CCC(=O)N[C@@H](CS)C(=O)O)C(=O)O` [γ-glutamylcysteine] in this work.

Reference: paper PMC10334278 (Journal of Pharmaceutical Analysis, 2023)
